The nature of assay [1]: Displacement of [125I]-alphaBgt from Torpedo californica muscle-type nAChR preincubated for 2 to 3 hrs followed by [125I]-alphaBgt addition addition measured after 5 mins. Also noted: species or system Tetronarce californica.
Assay [2] has as its target Neuronal acetylcholine receptor subunit alpha-7 (Homo sapiens, UniProt P36544). In words: Displacemet of [125I]-alphaBgt from human alpha7 nAChR expressed in rat GH4C1 cells preincubated for 2 to 3 hrs followed by [125I]-alphaBgt addition measured after 5 mins. Format: cell-based.
Assay [3] has as its system Human immunodeficiency virus 1. Kind of assay: Inhibition of HIV-1 reverse transcriptase at 10 uM.
The test system of assay [4] is K562. Kind of assay: Cytotoxicity against human K562 cells. The assay is classed as functional, cell-based.
The subject of assay [5] is Human immunodeficiency virus 1. Kind of assay: Antiviral activity against HIV1 LAV in human PBM cells. The conditions noted are these: Human immunodeficiency virus 1, LAV. Format: functional, cell-based.
Assay [6] relates to Staphylococcus aureus. In words: Antibacterial activity against Staphylococcus aureus. Format: functional.
Assay [7] concerns Staphylococcus aureus. In words: Antibacterial activity against methicilin-resistant Staphylococcus aureus. The assay is classed as functional.
In assay [8] the test system is Plasmodium falciparum. In words: Antiprotozoal activity against chloroquine-sensitive Plasmodium falciparum D6 after 48 hrs by lactate dehydrogenase assay. Format: functional. To be noted: D6, 48 h.
Assay [9] deals with Plasmodium falciparum. In words: Antiprotozoal activity against chloroquine-resistant Plasmodium falciparum W2 after 48 hrs by lactate dehydrogenase assay. Format: functional. The conditions noted are these: W2, 48 h.
A short description of assay [10]: Inhibition of pig cerebral cortex Na+/K+-ATPase. Also noted: species or system Sus scrofa.
A short description of assay [11]: Inhibition of rabbit sercoplasmic reticulum Ca+-ATPase. Also on record: species or system Oryctolagus cuniculus.
For assay [12], the system named is K562. Kind of assay: Growth inhibition of human K562 cells. Format: functional.
In assay [13] the target is Eukaryotic translation initiation factor 5A-1 (Homo sapiens) (UniProt P63241). In words: Inhibition of eIF5A-1 (unknown origin) at 1 uM.
The subject of another assay is HeLa. In words: Antiproliferative activity against human HeLa cells. The assay is classed as functional, cell-based.
Assay [14] can be described thus: Inhibition of Ca2+-ATPase (unknown origin). Also on record: species or system Homo sapiens.

In brackets after ≈: the same amount, converted by molar mass.

Chain of Neuronal acetylcholine receptor subunit alpha-7 (P36544 whole entry): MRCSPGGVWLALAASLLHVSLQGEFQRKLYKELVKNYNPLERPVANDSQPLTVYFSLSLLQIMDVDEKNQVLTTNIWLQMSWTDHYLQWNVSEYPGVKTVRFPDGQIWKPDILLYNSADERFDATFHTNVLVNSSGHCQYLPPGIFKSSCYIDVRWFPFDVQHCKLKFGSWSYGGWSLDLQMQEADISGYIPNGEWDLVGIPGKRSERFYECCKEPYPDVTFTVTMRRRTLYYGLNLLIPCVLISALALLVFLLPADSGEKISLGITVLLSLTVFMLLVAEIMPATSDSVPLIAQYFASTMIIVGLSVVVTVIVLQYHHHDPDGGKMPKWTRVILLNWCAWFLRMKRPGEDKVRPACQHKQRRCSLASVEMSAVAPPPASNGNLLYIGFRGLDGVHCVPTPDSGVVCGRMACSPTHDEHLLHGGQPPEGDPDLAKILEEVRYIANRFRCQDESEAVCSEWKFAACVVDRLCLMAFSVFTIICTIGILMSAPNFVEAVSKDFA
Chain of Eukaryotic translation initiation factor 5A-1 (Homo sapiens) (P63241 whole entry): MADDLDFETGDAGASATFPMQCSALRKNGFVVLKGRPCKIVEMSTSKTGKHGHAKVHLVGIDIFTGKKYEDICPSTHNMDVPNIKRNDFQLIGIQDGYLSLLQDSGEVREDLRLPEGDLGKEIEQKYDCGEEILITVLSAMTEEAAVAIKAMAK

Regarding `CCC[C@@H]1CCC[C@@]2(N=C3N[C@]4(CCC=C[C@H](CC)O4)C[C@@H]4CC[C@H]([C@@H]2C(=O)OCCCCCCCCCCCCCCCC(=O)N(CCCN)CCCCN)N34)O1`, the Ki in assay [1] and in assay [2] was 8 to 310 µM throughout.

As for `NCCCCN(CCCN)C(=O)CCCCCCCCCCCCCCCc1ccc2c(c1)[C@@H]1C[C@]3(CCCCO3)NC3=[N+]1[C@@H]2C[C@@]1(CCCCO1)N3.[Cl-]`, the inhibition (as a rule, the share of the control response that was lost under treatment) in assay [3] stood at 64%. The IC50 (commonly the concentration needed to halve the response being measured) in the assay on K562 [4] was determined as 0.52 µg/mL.

With `CC[C@H]1C=CCC[C@@]2(C[C@@H]3CC[C@@H]4[C@H](C(=O)OCCCCCCCCCCCCCCCC(=O)N(CCCN)CCCN)[C@]5(CCC[C@@H](C)O5)NC(=N2)N34)O1`, the EC50 (as a rule, the concentration needed to bring the measured effect to its halfway point) in assay [5] worked out at 11 nM. For the same compound, in assay [5], the 90% effect level (EC90) was put at 46 nM. The MIC with Staphylococcus aureus [6] and against Staphylococcus aureus [7] was 0.63 µg/mL (≈ 0.817 µM) in each case. Besides, the IC50 was 0.11 to 0.12 µg/mL (≈ 0.143 to 0.156 µM) in the assay on Plasmodium falciparum [8], 0.11 to 0.12 µg/mL (≈ 0.143 to 0.156 µM) with Plasmodium falciparum [9], 2000 nM in [10] and 10 µM in assay [11]. The compound also had an inhibition in assay [3] of 55 to 64%.

As for `CC[C@H]1C=CCC[C@@]2(C[C@@H]3CC[C@@H]4C(C(=O)OC/C=C/c5ccccc5)[C@]5(CCC[C@@H](C)O5)NC(=[N+]34)N2)O1` (stereo partly drawn), the GI50 (commonly the concentration giving 50% growth inhibition) in the assay on K562 [12] is under 1000 nM.

The compound `CC/C=C/[C@@H]1CC[C@]2(C[C@H]3CC[C@H]4[C@@H](C(=O)OC(CC)CCCCCCCCCCCCC[C@@H]5O[C@](O)(CCN)[C@H](O)N(CCCN)C5=O)[C@@]5(CCC[C@H](C)O5)NC(=[N+]34)N2)O1` (stereo partly drawn) had an inhibition in [13] of 50%.

On to `CC/C=C/[C@H]1CC[C@@]2(C[C@@H]3CC[C@@H]4[C@H](C(=O)OCCCCCCCCCCCCCCC(O)C(=O)NCCCN)[C@]5(CCC[C@@H](C)O5)N=C(N2)N34)O1` (stereo partly drawn), for which the Ki in assay [1] and in assay [2] was 8 to 310 µM each time. Moreover, in the assay with HeLa, the IC50 lay within 580 to 2100 nM.

For `NCCCCN(CCCN)C(=O)CCCCCCCCCCCCCCC(=O)O[C@H]1C[C@H]2C[C@@]3(CCCCCO3)NC3=[N+]2[C@H]1C[C@]1(CCCCO1)N3`, in assay [14], 3000 nM corresponded to half-maximal inhibition (IC50).

With `CC[C@H]1C=CCC[C@@]2(C[C@@H]3CC[C@@H]4[C@H](C(=O)OCCCCCCCCCCCCCCCC(=O)N(CCCN)C[C@@H](O)CCN)[C@]5(CCC[C@@H](C)O5)NC(=N2)N34)O1`, in assay [5], a half-maximal effect (EC50) was put at 40 nM and the EC90 (as a rule, the concentration at which the effect reaches the 90% level) was 120 nM.

`NCCCCN(CCCN)C(=O)CCCCCCCCCCCCCCC(=O)O[C@H]1C[C@H]2C[C@@]3(CCCCO3)NC3=[N+]2[C@@H]1C[C@@]1(CCCCCO1)N3` registered an IC50 in assay [14] of 1000 nM.

Take `CC/C=C/[C@H]1CC[C@@]2(C[C@@H]3CC[C@@H]4[C@H](C(=O)OCCCCCCCCCCCCCCCC(=O)N(CCCN)CCCCN)[C@]5(CCC[C@@H](C)O5)N=C(N2)N34)O1`: the IC50 with HeLa lay within 580 to 2100 nM.

The values above are taken from ChEMBL document CHEMBL4033635, “Structure, synthesis and biological properties of the pentacyclic guanidinium alkaloids” (Bioorg Med Chem, 2017).
